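Each compound was tested at five concentrations against cells in 96-well plates for 48 hours. GI50 = concentration required for 50% inhibition of growth.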 Activity calls are given as the source filed them. Cut-off read from the data, not from the text of the source: active = GI50 up to about 1.1 µM and inactive = higher. Bounds are passed on as bounds.

What all share (assay): growth of human tumour cells (NCI), 48 h
Test [1] has as its system A498.
For test [2], the system named is ACHN.
Test [3] relates to COLO 205.
The subject of test [4] is DU-145.
Test [5] concerns HCC 2998.
In test [6] the test system is HOP-62.
Test [7] relates to K562.
The subject of test [8] is KM12.
Test [9] relates to LOX IMVI.
In test [10] the test system is NCI-H226.
The test system of test [11] is NCI-H522.
The subject of test [12] is OVCAR-3.
The test system of test [13] is PC-3.
Test [14] has as its system SR.
Test [15] deals with T47D.
Test [16] relates to UO-31.
Test [17] concerns OVCAR-5.
Test [18] concerns SK-MEL-2.
In test [19] the test system is SNB-75.

On to `O=C(Cc1nccc2c1[nH]c1ccccc12)OC1C#CCSCC#C/C=C\1` (stereo unspecified), for which the GI50 was 78.5 µM (inactive) in test [1]; > 100 µM (inactive) in [2]; 52.1 µM (inactive) in test [3]; > 100 µM (inactive) in test [4]; > 100 µM (inactive) in test [5]; > 100 µM (inactive) in test [6]. Besides, the GI50 in test [7] was 43 µM (inactive); in test [8], > 100 µM (inactive); in test [9], 57.9 µM (inactive); in test [10], > 100 µM (inactive); in [11], 44.2 µM (inactive); in test [12], 95.9 µM (inactive). In addition, the GI50 in test [13] was > 100 µM (inactive); in [14], > 100 µM (inactive); in test [15], 72.1 µM (inactive); in test [16], 71.4 µM (inactive).

For the compound `N#CCN1c2ccccc2CCC1Cl` (stereo unspecified), the GI50 in [1], in test [2], in test [3], in test [4], in test [5] and in test [6] was > 10 µM (inactive) each time. Moreover, the GI50 in test [7], in test [8], in test [9], in test [10], in [11] and in test [12] was > 10 µM (inactive) each time. Also, the GI50 in test [17], in test [13], in test [14], in [15] and in [16] was > 10 µM (inactive) throughout.

On to `COc1ccccc1[C@@H]1CCC2CC[C@@H](c3ccccc3OC)[N+]21Cc1ccccc1` (stereo partly specified), for which the GI50 in [1] was 2.25 µM (inactive); in [2], 3.3 µM (inactive); in test [3], 0.44 µM (active); in test [4] it was 2.28 µM (inactive); in test [6], 2.33 µM (inactive); in test [7], 0.344 µM (active). The GI50 was 0.522 µM (active) in [8]; 1.69 µM (inactive) in [9]; 1.39 µM (inactive) in test [10]; 1.33 µM (inactive) in [11]; 0.887 µM (active) in test [12]; 2.88 µM (inactive) in [17]. The GI50 in [13] was 1.25 µM (inactive); in test [18] it was 1.51 µM (inactive); in test [19], 2.15 µM (inactive); in [14], 1.03 µM (active); in test [15] it was 0.349 µM (active); in test [16], 2.96 µM (inactive).

As for `COc1cccc(N(CN2C(=O)CCC2OC)C(C)=O)c1` (stereo unspecified), the GI50 in [1], in test [2], in [3], in test [4], in [5] and in test [6] was > 100 µM (inactive) in each case. For the same compound, the GI50 in test [7], in test [8], in test [9], in test [10], in test [12] and in test [17] was > 100 µM (inactive) in each case. Moreover, the GI50 in [13], in test [18], in test [19], in [14], in test [15] and in test [16] was > 100 µM (inactive) in each case.

On to `CCN1CCC(O)(/C=C/c2ccc(OC)cc2)C(C(=O)/C=C/c2ccc(OC)cc2)C1` (stereo unspecified), for which the GI50 was 13.3 µM (inactive) in test [1]; 13.7 µM (inactive) in test [2]; 4.2 µM (inactive) in [3]; 10.9 µM (inactive) in test [4]; 14.9 µM (inactive) in [5]; 18.2 µM (inactive) in test [6]. Also, the GI50 was 2.75 µM (inactive) in [7]; 7.8 µM (inactive) in test [8]; 2.37 µM (inactive) in test [9]; 16 µM (inactive) in [10]; 12.5 µM (inactive) in test [11]; 14.1 µM (inactive) in [12]. Further, the GI50 in [17] is 15.2 µM (inactive); in test [13] it was 11.3 µM (inactive); in test [14], 3.46 µM (inactive); in test [15], 6.04 µM (inactive); in test [16], 9.93 µM (inactive).

As for `O=c1[nH]c2ccc(C(F)(F)F)cc2nc1Cc1ccccc1`, the GI50 in [1] was 26.6 µM (inactive); in test [2] it was 29.1 µM (inactive); in test [3], 18.1 µM (inactive); in test [4] it was 34.4 µM (inactive); in test [5], 24.1 µM (inactive); in test [6], 33 µM (inactive). Further, the GI50 in [7] is 38.5 µM (inactive); in [8], 31.6 µM (inactive); in test [9], 40 µM (inactive); in [10], 17.7 µM (inactive); in test [13], 26.4 µM (inactive); in test [18], 24.7 µM (inactive). For the same compound, the GI50 in test [19] is 45.9 µM (inactive); in test [14], > 100 µM (inactive); in test [15], 40.5 µM (inactive); in test [16] it was 37.3 µM (inactive).

On to `COc1cccc(NCC(=O)Nn2c(-c3ccccc3)nc3ccccc3c2=O)c1`, for which the GI50 in [1] was 17.6 µM (inactive); in test [2], > 100 µM (inactive); in test [3], > 100 µM (inactive); in [4] it was > 100 µM (inactive); in test [5] it was > 100 µM (inactive); in test [6], > 100 µM (inactive). Further, the GI50 in [7], in test [8], in [9], in test [10], in [11] and in test [12] was > 100 µM (inactive) each time. In addition, the GI50 in test [17], in test [13], in test [19], in [14], in test [15] and in [16] was > 100 µM (inactive) throughout.

For the compound `O=C(O)C1C2C=CC(O2)C1C(=O)NCc1ccncc1` (stereo unspecified), the GI50 in test [1], in test [2], in test [3], in [4], in test [6] and in test [7] was > 100 µM (inactive) throughout. Further, the GI50 in test [8] is > 100 µM (inactive); in [9], > 100 µM (inactive); in [10], > 100 µM (inactive); in test [11], > 100 µM (inactive); in [12], 33.7 µM (inactive); in test [17], > 100 µM (inactive). The GI50 in [13], in test [18], in [19], in test [14], in [15] and in test [16] was > 100 µM (inactive) throughout.

Take `CC(CCOc1ccc2ccc(=O)oc2c1)C1=CC(=O)C(C)(C)O1` (stereo unspecified): the GI50 was 1.95 µM (inactive) in [1]; 3.18 µM (inactive) in test [2]; 2.42 µM (inactive) in test [3]; 2.39 µM (inactive) in test [4]; 2.67 µM (inactive) in [5]; 5.12 µM (inactive) in [6]. Also, the GI50 was 2.17 µM (inactive) in test [8]; 2.23 µM (inactive) in test [9]; 7.35 µM (inactive) in test [10]; 1.51 µM (inactive) in test [11]; 3.22 µM (inactive) in test [12]; 9.27 µM (inactive) in test [17]. In addition, the GI50 in [13] was 4.03 µM (inactive); in test [18], 3.37 µM (inactive); in test [14], 0.612 µM (active); in test [15] it was 2.02 µM (inactive); in [16], 3.05 µM (inactive).

For `CC(C)=CCC(O)[C@](C)(O)[C@H]1[C@H](O)C[C@@]2(C)[C@@H]3CCc4cc(O)c(OC5OC(CO)C(O)C(O)C5O)cc4C3(C)C(=O)C[C@]12C` (stereo partly specified), the GI50 in [1], in test [2], in test [3], in [4], in test [5] and in test [6] was > 100 µM (inactive) each time. The GI50 in test [7], in [8], in [10], in test [11], in test [12] and in test [17] was > 100 µM (inactive) in each case. Further, the GI50 in test [13], in [18], in [19], in test [14], in [15] and in test [16] was > 100 µM (inactive) throughout.

Take `CCOC(=O)C1(O)C(=O)C2=C3C(=O)OC(C4OC(=O)c5c(c(O)c(O)c(O)c5C31)-c1c(cc(O)c(O)c1O)C(=O)OC1COC(=O)c3cc(O)c(O)c(O)c3-c3c(cc(O)c(O)c3O)C(=O)OC14)[C@@H]2O` (stereo partly specified): the GI50 is > 100 µM (inactive) in test [1]; 17.8 µM (inactive) in [2]; 15.7 µM (inactive) in [3]; 31 µM (inactive) in test [4]; 25.7 µM (inactive) in [5]; 36.5 µM (inactive) in [6]. Moreover, the GI50 in test [7] was 20.7 µM (inactive); in [8] it was 33.7 µM (inactive); in test [9], 15.8 µM (inactive); in test [10], 16.5 µM (inactive); in [11], 21 µM (inactive); in test [12], 32.6 µM (inactive). Moreover, the GI50 in [17] was 15.9 µM (inactive); in test [13], 46 µM (inactive); in test [18] it was 25.7 µM (inactive); in test [14], 30.8 µM (inactive); in test [15], 24.8 µM (inactive); in test [16], 26.4 µM (inactive).
